Laboratory results reported in article PMC10870825, “Design, synthesis, and inhibitory activity of hydroquinone ester derivatives against mushroom tyrosinase” (RSC Advances, 2024).
Entries after “also recorded” stand apart in the source; their conditions may differ. Like-named read-outs stand apart in the source and are kept apart here.

What was measured:
[1] = molecular target: T1, mushroom tyrosinase (mTyr) (Agaricus bisporus, UniProt C7FF04); assay: Inhibitory activity assay on mTyr with L-tyrosine as substrate; assay type: biochemical; details: for Concentration at maximum inhibition rate: second figure of the cell rate/concentration
Method: The synthesized hydroquinone ester derivatives were dissolved in 3% dimethyl sulfoxide (DMSO) solution and then diluted with phosphate-buffered solution (PBS, pH 6.86, 100 mM) to obtain different concentrations. […] The plate was incubated at 37 °C for 30 minutes, after which 20 μL of L-tyrosine solution (1 mM) was added and mixed. The absorbance at a wavelength of 475 nm was measured using a SpectraMax 190 microplate reader (MolecularDevices, USA) continuously for 30 minutes. PBS was used as a blank control, and kojic acid was used as a positive control.

[2] = molecular target: T1, mushroom tyrosinase (mTyr); details: read-out: IC50 for inhibiting mTyr activity; literature value; ref [15]; cited from earlier work
[3] = molecular target: T1, mushroom tyrosinase (mTyr); assay: Inhibition reversibility and type assay (Lineweaver–Burk kinetics) on mTyr; assay type: biochemical; details: for Inhibition type: Lineweaver–Burk plots, 300 U/mL mTyr, varying L-tyrosine
Method: The methodology for evaluating the reversibility of inhibition and the inhibition type of the compounds on mTyr closely parallels the procedure outlined in the inhibitory activity assay of compounds on mTyr.
For the evaluation of inhibition reversibility, a constant concentration of 1 mM L-tyrosine was employed. […] The absorption was measured to determine the initial enzymatic reaction rate corresponding to each enzyme concentration. Specifically, the initial enzymatic reaction rate was calculated by subtracting the initial absorbance from the absorbance recorded at a specific time and then dividing the result by the corresponding time interval.[32] Subsequently, the collected data were plotted on a scatter plot, with the initial enzymatic reaction rate represented on the Y-axis and the enzyme concentration on the X-axis. In cases of reversibility, this will result in fitting a set of straight lines passing through the origin. Conversely, when reversibility was absent, a set of parallel lines emerged as the fit.[33]
In order to investigate the inhibition type, a final concentration of 300 U per mL mTyr was employed, accompanied by varying concentrations of L-tyrosine. The enzymatic reaction rate was evaluated for different concentrations of compounds 3a–3e. Subsequently, the ΔOD475 values were plotted against the L-tyrosine concentration using the Lineweaver–Burk equation, allowing for the creation of double reciprocal plots.

[4] = tested on: human epidermal melanoma A375 cells; assay: CCK-8 cell proliferation and cytotoxicity assay, A375 cells; assay type: cell-based
Method: (§1) Cell proliferation and cytotoxicity assays were performed using the CCK-8 on Human Epidermal Melanoma A375 and HaCaT cells. Initially, the cells were seeded in 96-well plates at a density of 4 × 10^4 cells per well and incubated for 24 hours at 37 °C with 5% CO2 in a humidified incubator. Each treatment was conducted in six duplicate wells. Various concentrations of the tested compounds were added to the wells, and the cells were further incubated for 72 hours. After the incubation period, CCK-8 solution was added to each well and incubated for an additional 2 hours. The absorbance of each well at 450 nm was measured using an absorbance microplate reader (BioTek ELx800, USA). Negative controls with cells treated with distilled water and positive controls with cells were treated with 10 μg mL^−1 taxol was included in the assay. The percentage of cell growth inhibition was calculated using eqn (2).2 [drawing 1] where G1 represents the absorbance of a mixture containing cells, medium, and CCK8, G2 represents the absorbance of absorbance of a mixture containing cells, medium, CCK8, and the test compound; G3 represents a mixture containing medium and CCK8.
(§2) Cell growth and morphology were observed using an inverted microscope (Olympus IX51, Japan). The experiments were conducted in triplicate to ensure accuracy and consistency of results.

[5] = tested on: human immortalized keratinocyte (HaCaT) non-tumor cells; assay: CCK-8 cell proliferation and cytotoxicity assay, HaCaT cells; assay type: cell-based
Method: as §1, §2

[6] = substrate L-tyrosine, read-out: IC50 for inhibiting mTyr activity

T1 sequence (C7FF04 1-392): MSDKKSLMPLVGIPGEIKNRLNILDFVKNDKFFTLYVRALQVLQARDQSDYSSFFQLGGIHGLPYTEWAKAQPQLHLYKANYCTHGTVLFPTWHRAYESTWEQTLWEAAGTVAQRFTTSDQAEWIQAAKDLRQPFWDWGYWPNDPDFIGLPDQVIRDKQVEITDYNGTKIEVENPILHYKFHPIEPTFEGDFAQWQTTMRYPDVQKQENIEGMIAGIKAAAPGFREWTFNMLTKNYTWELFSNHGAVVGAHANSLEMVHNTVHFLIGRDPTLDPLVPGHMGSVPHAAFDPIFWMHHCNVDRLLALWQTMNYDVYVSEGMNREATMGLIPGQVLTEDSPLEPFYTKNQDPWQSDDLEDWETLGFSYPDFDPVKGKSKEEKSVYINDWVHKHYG

| Structure (SMILES) | Concentration at maximum inhibition rate [1] | IC50 [1, 6] | Inhibition type [3] | maximum reaction rate (Vm) of mTyr ([3]; compound concentration 5 μM) | maximum reaction rate (Vm) of mTyr ([3]; compound concentration 10 μM) | maximum reaction rate (Vm) of mTyr ([3]; compound concentration 20 μM) | melting point | also measured |
| --- | --- | --- | --- | --- | --- | --- | --- | --- |
| O=C(O)C=Cc1ccc(O)cc1 [4-Hydroxycinnamic acid, 4-hydroxycinnamic acid, reference compound] | 50 µM |  |  |  |  |  |  | IC50 [1]: 16.4 ± 5.42 µM |
| O=C(O)/C=C/c1ccccc1 [Cinnamic acid, cinnamic acid] |  |  |  |  |  |  |  | IC50 [2]: 201 ± 5.3 µM |
| O=C(/C=C/c1ccc(O)cc1)Oc1ccc(O)cc1 [Compound 3a, 4-hydroxyphenyl (2E)-3-(4-hydroxyphenyl) prop-2-enoate] | 10 µM | 1.75 ± 0.02 µM | Noncompetitive; also recorded: non-competitive inhibition; also recorded: non-competitive inhibitors | 0.4272 ×103, min-1 | 0.2843 ×103, min-1 | 0.1836 ×103, min-1 | 217 to 220 °C |  |
| O=C(C=Cc1ccccc1)Oc1ccc(O)cc1 [Compound 3b, 4-hydroxyphenyl cinnamate] | 2.5 µM | 0.18 ± 0.06 µM | Mix-noncompetitive; also recorded: mixed-type inhibition |  |  |  | 171 to 173 °C | maximum reaction rate (Vm) of mTyr ([3]; compound concentration 1 μM): 0.7572 ×103, min-1; maximum reaction rate (Vm) of mTyr ([3]; compound concentration 2 μM): 0.3461 ×103, min-1; maximum reaction rate (Vm) of mTyr ([3]; compound concentration 4 μM): 0.2145 ×103, min-1; Ki ([3]; read-out: free enzyme inhibition constant (KI)): 1.88 µM; mTyr–substrate complex inhibition constant (KIS) ([3]; secondary plots, mixed-type inhibition): 0.3395 µM; inhibition at 50 µM ([4]; A-375, 50 μM, read-out: inhibition rate on A375 cells): 60.9%; IC50 ([4]; A-375, 72 hours, CCK-8, read-out: IC50 against A375 cells): 40.8 µM; inhibition at 50 µM ([5]; Homo sapiens, HaCaT, 50 μM, read-out: inhibition rate on HaCaT cells): 9.09%; IC50 ([5]; Homo sapiens, HaCaT, 72 hours, CCK-8, read-out: IC50 against HaCaT cells): 169 µM; inhibition rate on HaCaT cells ([5]; concentration range 3.125–25 μM): below 5% |
| O=C(CCc1ccccc1)Oc1ccc(O)cc1 [Compound 3c, 4-hydroxyphenyl 3-phenylpropanoate] | 50 µM | 7.46 ± 0.9 µM | Noncompetitive; also recorded: non-competitive inhibition; also recorded: non-competitive inhibitors | 0.6327 ×103, min-1 | 0.3424 ×103, min-1 | 0.2581 ×103, min-1 | 149 to 151 °C |  |
| O=C(Oc1ccc(O)cc1)c1ccccc1 [Compound 3d, 4-hydroxyphenyl benzoate] | 75 µM | 20.5 ± 1.79 µM | competitive inhibition; also recorded: competitive inhibitors | 0.9216 ×103, min-1 | 0.9208 ×103, min-1 | 0.9209 ×103, min-1 | 150 to 152 °C |  |
| O=C(Oc1ccc(O)cc1)c1ccc(F)cc1 [Compound 3e, 4-hydroxyphenyl 4-fluorobenzoate] | 100 µM | 24.7 ± 3.04 µM | competitive inhibition; also recorded: competitive inhibitors | 1.474 ×103, min-1 | 1.470 ×103, min-1 | 1.468 ×103, min-1 | 142 to 144 °C |  |
| O=C(Oc1ccc(OC(=O)c2ccc(F)cc2)cc1)c1ccc(F)cc1 [Compound 3f, 1,4-phenylene bis(4-fluorobenzoate)] | 100 µM | 54.2 ± 8.65 µM |  |  |  |  | 196 to 198 °C |  |
| O=C(CCc1ccccc1)Oc1ccc(OC(=O)CCc2ccccc2)cc1 [Compound 3g, 1,4-phenylene bis(3-phenylpropanoate)] |  |  |  |  |  |  | 128 to 130 °C |  |
| Oc1ccc(O)cc1 [Hydroquinone, hydroquinone] | 75 µM | 22.78 ± 0.16 µM |  |  |  |  |  |  |
